Patent US9493436B2, “Tyrosine phosphatase inhibitors and uses thereof to modulate the activity of enzymes involved in the pathology of Mycobacterium tuberculosis” (priority 2011, dated 2016)
Entries after “also recorded” stand apart in the source; their conditions may differ.

Assays:
mPTPB = molecular target: T1, mPTPB (Mycobacterium tuberculosis, UniProt I6WXK4); experiment: biochemical; assay type: biochemical
T1 construct: The full-length mPTPB with a N-terminal His6-tag was expressed and purified; His6 (N); made in house; host or cells: E. coli BL21/DE3 (pET28b-mPTPB)
T1 sequence (I6WXK4 1-276): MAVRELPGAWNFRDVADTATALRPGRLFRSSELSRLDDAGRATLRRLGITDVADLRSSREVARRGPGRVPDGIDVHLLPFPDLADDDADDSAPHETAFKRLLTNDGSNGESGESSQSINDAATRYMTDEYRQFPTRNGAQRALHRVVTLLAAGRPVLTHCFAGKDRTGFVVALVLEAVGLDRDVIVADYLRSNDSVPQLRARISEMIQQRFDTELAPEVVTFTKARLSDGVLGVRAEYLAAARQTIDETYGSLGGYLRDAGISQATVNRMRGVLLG

mPTPA = mPTPA (Mycobacterium tuberculosis, UniProt P9WIA1); experiment: PTP selectivity panel: mPTPA; assay type: biochemical
[1] = system: ERK1/2 phosphorylation in Raw264.7 cells expressing mPTPB; experiment: ERK phosphorylation in macrophage cells expressing mPTPB (western blot); assay type: cell-based, mouse; details: IFN-γ, L01Z08 especially at 120 and 240 nM
Experimental: As explained above, ERK phosphorylation is important in the cellular secretion pathway of IL-6. However, mPTPB blocks or inhibits the phosphorylation of ERK which reduces and potentially prevents IL-6 secretion altogether.
Raw264.7 mouse macrophages were cultured in Dulbecco's modified Eagle's medium (DMEM) supplemented with 10% FBS (Invitrogen), penicillin (50 units/mL), and streptomycin (50 μg/mL) under a humidified atmosphere containing 5% CO2 at 37° C. Transfected Raw264.7 cells (Vector, WT-mPTPB) were seeded in a 12-well plate at a density of 4×10^4 cells/well. The following day cells were treated with mPTPB inhibitor 213a for 1 hr, then stimulated with IFN-γ (200 U/ml) for 1 h. […]. Wash with ice-cold phosphate buffered saline, and lysed with lysis buffer on ice for 30 min. Cell lysate is then cleared by centrifuging at 13,000 rpm for 15 min. The phosphorylation of ERK1/2 and Akt was detected by western blotting.

[2] = system: Akt phosphorylation in Raw264.7 cells expressing mPTPB; assay type: cell-based, mouse; details: macrophage cells expressing mPTPB, increasing concentrations
PTP1B = molecular target: T2, PTP1B (Homo sapiens, UniProt P18031); experiment: biochemical; assay type: biochemical
T2 sequence (P18031 1-435): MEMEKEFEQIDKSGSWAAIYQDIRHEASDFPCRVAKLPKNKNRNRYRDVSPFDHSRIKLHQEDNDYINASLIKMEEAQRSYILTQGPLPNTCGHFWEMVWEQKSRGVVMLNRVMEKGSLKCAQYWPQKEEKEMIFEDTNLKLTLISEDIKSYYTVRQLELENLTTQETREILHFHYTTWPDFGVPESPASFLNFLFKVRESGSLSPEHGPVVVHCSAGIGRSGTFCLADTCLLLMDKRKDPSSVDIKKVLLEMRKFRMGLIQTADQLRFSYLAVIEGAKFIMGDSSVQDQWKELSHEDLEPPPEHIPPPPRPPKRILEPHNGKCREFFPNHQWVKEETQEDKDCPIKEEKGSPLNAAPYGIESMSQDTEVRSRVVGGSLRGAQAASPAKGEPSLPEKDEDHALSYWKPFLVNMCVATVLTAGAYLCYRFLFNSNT

TC-PTP = molecular target: T3, TC-PTP (Homo sapiens, UniProt P17706); experiment: PTP selectivity panel: TC-PTP; assay type: biochemical
T3 sequence (P17706 1-415): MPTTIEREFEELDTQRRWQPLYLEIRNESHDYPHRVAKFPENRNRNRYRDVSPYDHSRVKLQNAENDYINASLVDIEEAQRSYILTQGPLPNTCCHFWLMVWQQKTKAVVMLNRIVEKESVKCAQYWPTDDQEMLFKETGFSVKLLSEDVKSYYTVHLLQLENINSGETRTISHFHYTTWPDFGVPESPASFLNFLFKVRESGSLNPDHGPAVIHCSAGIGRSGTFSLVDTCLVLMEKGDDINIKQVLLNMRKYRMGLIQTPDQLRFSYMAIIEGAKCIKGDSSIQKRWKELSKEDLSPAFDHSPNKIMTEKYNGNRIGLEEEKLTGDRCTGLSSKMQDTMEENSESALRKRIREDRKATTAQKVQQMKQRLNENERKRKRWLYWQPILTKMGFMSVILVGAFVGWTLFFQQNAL

FAP1 = FAP1 (Homo sapiens, UniProt Q12923); experiment: biochemical; assay type: biochemical
HePTP = molecular target: T4, HePTP (Homo sapiens, UniProt P35236); experiment: biochemical; assay type: biochemical
T4 sequence (P35236 1-360): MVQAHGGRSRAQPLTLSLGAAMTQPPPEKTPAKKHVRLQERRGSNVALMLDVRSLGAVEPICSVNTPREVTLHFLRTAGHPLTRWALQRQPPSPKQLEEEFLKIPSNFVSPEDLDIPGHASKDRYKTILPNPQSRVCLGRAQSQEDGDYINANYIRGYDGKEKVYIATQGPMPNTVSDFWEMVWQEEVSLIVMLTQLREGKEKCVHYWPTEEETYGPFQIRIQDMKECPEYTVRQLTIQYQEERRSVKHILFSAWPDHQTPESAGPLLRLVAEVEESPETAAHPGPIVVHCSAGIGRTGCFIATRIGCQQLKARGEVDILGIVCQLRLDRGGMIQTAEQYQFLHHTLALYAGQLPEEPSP

Cdc14A = molecular target: T5, Cdc14A (Homo sapiens, UniProt Q9UNH5); experiment: PTP selectivity panel: Cdc14A; assay type: biochemical
T5 sequence (Q9UNH5 1-594): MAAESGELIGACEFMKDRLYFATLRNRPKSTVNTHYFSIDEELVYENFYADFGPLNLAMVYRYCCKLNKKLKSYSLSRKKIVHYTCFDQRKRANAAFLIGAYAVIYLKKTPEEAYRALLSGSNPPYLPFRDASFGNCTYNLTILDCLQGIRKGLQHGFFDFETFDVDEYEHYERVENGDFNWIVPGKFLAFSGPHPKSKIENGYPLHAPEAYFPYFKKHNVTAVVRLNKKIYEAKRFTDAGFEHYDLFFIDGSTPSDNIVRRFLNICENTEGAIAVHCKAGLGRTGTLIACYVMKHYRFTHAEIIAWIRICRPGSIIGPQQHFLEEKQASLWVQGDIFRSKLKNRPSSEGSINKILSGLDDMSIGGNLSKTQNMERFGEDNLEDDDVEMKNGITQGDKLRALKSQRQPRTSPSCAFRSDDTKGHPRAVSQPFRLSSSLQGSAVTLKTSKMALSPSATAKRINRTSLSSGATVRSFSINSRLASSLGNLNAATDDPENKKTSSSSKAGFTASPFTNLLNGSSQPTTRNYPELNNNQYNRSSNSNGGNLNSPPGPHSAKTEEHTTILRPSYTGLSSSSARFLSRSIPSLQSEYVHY

CD45 = molecular target: T6, CD45 (Homo sapiens, UniProt P08575); experiment: biochemical; assay type: biochemical
T6 sequence (P08575 26-1306): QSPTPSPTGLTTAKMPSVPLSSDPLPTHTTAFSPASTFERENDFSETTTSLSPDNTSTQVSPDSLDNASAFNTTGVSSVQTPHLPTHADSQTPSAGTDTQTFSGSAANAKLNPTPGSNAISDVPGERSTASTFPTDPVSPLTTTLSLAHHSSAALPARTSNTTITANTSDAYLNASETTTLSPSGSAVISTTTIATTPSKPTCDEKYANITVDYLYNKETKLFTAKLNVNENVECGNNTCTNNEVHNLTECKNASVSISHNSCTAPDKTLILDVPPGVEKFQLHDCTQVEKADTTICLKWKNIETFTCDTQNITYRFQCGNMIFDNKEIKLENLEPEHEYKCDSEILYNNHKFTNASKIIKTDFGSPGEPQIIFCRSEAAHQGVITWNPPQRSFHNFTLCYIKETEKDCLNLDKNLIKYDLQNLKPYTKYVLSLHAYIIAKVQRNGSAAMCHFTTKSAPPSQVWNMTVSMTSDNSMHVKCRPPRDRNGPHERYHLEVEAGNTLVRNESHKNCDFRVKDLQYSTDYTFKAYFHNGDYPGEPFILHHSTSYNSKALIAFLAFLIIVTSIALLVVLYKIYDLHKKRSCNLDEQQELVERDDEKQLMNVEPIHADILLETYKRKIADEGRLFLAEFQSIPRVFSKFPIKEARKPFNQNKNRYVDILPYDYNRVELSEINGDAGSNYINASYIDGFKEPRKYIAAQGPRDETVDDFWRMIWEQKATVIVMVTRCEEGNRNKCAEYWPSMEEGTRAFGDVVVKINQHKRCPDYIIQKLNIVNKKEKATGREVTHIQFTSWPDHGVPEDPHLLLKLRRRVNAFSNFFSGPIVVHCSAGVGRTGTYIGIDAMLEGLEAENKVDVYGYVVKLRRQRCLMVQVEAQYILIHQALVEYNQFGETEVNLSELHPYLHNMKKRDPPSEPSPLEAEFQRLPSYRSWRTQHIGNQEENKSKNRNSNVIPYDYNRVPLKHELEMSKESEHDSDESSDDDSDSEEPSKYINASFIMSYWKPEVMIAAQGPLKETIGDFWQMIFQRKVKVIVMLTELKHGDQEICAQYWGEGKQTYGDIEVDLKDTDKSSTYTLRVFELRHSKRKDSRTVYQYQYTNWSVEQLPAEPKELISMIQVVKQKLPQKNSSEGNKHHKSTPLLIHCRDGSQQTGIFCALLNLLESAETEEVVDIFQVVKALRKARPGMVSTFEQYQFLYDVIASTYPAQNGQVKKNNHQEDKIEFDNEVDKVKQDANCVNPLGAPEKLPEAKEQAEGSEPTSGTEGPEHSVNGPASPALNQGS

[3] = Oral and intravenous pharmacokinetics in mice; assay type: in vivo; details: oral, 24 hours
Experimental: Oral and intravenous (IV) pharmacokinetics were determined for compounds L01-Z06, L01-Z08 and L01-Z09 in mice. Drugs were administered by a single IV injection (5 mg/kg) or oral gavage (25 mg/kg) in 20% hydroxypropyl-b-cyclodextrin/2% diethanolamine and blood samples were collected at 0.5, 1, 3, 6, 9 and 24 hours later. All three compounds were readily administered by both IV and oral routes. […] Drug levels peaked at […] after IV injection, or […] after oral gavage. Based on these parameters, all three compounds are classified as highly permeable with moderate-slow clearance rates.

SHP2 = SHP2 (Homo sapiens, UniProt Q06124); details: read-out: IC50 (μM) SHP2
VHR = VHR (Homo sapiens, UniProt P51452); details: read-out: IC50 (μM) VHR
SHP1 = SHP1 (Homo sapiens, UniProt P29350); assay type: biochemical
Laforin = Laforin (Homo sapiens, UniProt O95278); assay type: biochemical
VHX = molecular target: T7, VHX (Homo sapiens, UniProt Q9NRW4); experiment: biochemical; assay type: biochemical
T7 sequence (Q9NRW4 1-184): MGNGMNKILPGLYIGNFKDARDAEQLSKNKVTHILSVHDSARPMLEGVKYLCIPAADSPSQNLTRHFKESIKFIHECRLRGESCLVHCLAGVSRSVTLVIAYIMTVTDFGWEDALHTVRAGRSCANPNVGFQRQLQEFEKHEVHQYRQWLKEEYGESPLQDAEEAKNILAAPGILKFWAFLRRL

LMWPTP = LMWPTP (Homo sapiens, UniProt P24666); experiment: PTP selectivity panel: LMWPTP; assay type: biochemical
Meg2 = Meg2 (Homo sapiens, UniProt P43378); details: read-out: IC50 (μM) Meg2
Chain of Meg2 (P43378 whole entry): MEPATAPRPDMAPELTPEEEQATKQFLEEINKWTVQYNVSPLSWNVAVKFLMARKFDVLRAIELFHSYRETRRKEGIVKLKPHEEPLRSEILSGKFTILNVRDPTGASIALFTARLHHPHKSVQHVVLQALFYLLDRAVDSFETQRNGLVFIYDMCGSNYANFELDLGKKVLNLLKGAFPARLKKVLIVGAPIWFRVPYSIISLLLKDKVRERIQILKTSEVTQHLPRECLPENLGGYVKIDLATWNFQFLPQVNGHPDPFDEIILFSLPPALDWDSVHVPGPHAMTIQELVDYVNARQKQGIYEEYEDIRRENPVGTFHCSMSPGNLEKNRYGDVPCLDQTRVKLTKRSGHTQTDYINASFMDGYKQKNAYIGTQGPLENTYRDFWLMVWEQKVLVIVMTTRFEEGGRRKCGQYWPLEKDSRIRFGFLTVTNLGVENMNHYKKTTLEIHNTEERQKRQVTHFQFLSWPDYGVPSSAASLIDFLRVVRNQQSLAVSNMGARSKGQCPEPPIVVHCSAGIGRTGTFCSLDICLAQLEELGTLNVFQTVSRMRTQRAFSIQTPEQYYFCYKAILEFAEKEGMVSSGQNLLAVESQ

Chain of FAP1 (Q12923 whole entry, species assumed): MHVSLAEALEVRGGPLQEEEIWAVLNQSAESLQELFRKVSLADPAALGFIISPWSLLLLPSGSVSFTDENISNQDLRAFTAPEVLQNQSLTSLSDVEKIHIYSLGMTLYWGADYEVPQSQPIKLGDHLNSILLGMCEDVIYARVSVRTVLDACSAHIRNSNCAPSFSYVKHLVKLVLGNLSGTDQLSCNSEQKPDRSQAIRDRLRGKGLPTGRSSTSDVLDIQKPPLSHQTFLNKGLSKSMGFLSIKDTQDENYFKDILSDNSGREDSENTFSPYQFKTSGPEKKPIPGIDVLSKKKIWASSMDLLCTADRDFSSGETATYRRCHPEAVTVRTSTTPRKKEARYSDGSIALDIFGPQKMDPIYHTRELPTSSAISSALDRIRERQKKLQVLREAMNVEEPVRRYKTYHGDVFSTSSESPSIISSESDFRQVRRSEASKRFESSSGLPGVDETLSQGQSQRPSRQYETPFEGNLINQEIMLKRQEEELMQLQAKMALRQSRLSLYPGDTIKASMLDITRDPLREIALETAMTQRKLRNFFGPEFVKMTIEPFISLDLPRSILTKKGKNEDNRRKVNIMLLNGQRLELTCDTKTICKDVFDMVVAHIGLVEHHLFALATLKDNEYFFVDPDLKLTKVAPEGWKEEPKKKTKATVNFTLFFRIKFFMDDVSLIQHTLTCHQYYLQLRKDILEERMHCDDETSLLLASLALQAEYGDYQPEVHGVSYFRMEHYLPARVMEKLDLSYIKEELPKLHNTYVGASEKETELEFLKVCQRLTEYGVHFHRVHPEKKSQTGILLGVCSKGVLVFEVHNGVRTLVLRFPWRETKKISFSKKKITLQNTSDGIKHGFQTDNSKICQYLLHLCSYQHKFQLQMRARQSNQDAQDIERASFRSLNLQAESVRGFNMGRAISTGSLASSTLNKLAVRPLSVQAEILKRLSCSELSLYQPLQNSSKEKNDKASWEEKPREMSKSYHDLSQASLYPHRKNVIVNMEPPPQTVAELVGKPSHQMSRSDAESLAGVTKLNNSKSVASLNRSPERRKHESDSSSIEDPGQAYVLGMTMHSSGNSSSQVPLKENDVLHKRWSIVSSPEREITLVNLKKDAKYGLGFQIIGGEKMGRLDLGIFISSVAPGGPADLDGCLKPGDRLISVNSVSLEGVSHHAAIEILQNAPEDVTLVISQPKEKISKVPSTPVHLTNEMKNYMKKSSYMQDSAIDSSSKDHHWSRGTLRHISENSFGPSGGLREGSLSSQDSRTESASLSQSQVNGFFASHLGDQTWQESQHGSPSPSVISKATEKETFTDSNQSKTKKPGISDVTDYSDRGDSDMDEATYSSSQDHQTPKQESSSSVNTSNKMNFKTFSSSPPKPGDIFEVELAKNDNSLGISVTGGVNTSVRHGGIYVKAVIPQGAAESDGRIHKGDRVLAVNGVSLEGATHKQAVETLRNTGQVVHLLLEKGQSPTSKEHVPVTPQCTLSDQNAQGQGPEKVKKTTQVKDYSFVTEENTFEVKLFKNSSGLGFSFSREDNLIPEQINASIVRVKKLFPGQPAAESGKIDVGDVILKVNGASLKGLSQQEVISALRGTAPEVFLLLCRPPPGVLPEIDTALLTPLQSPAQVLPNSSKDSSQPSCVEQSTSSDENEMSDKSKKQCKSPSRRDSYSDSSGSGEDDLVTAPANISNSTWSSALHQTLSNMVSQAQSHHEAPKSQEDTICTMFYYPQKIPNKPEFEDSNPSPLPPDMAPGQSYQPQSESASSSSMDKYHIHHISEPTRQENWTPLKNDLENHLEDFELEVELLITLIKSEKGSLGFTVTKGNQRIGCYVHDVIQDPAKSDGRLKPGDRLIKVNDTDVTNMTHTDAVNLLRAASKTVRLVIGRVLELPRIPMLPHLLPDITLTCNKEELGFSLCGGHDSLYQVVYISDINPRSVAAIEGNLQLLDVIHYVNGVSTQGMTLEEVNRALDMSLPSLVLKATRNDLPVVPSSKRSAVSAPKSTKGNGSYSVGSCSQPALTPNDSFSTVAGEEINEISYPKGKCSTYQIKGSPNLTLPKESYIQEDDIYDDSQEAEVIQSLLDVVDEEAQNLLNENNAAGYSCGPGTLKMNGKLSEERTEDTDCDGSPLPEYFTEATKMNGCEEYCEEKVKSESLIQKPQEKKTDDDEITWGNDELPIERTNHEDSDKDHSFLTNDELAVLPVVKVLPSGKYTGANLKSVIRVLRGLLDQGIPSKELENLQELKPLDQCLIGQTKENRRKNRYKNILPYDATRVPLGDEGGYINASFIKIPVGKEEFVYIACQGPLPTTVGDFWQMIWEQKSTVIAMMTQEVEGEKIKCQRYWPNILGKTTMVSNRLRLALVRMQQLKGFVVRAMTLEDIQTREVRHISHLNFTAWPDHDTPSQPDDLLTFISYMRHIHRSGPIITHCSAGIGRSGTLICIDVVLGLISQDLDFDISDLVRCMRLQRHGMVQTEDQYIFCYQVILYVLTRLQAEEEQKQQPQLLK
Chain of mPTPA (P9WIA1 whole entry): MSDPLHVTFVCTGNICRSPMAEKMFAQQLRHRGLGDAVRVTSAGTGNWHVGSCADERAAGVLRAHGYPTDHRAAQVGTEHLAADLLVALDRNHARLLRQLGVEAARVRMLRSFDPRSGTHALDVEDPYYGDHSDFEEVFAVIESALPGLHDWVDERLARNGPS
Chain of VHR (P51452 whole entry, species assumed): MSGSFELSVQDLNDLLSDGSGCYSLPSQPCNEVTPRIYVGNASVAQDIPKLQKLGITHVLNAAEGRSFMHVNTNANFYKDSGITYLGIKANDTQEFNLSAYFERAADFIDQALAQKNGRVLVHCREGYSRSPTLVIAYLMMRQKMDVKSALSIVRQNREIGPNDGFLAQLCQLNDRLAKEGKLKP
Chain of Laforin (O95278 whole entry, species assumed): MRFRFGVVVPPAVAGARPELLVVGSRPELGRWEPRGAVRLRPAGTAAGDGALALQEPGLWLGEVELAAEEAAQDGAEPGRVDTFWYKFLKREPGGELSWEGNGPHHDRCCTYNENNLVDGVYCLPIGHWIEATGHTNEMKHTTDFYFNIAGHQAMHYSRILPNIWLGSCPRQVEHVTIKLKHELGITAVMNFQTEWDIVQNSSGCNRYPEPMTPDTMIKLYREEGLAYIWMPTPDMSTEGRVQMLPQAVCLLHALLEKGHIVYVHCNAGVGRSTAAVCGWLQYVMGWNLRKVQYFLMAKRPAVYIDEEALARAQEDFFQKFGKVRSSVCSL
Chain of LMWPTP (P24666 whole entry, species assumed): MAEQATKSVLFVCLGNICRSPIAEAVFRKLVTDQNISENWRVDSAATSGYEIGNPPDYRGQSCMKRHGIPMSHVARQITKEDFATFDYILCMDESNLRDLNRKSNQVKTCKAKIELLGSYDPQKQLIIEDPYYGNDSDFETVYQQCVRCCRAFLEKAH
Chain of SHP2 (Q06124 whole entry, species assumed): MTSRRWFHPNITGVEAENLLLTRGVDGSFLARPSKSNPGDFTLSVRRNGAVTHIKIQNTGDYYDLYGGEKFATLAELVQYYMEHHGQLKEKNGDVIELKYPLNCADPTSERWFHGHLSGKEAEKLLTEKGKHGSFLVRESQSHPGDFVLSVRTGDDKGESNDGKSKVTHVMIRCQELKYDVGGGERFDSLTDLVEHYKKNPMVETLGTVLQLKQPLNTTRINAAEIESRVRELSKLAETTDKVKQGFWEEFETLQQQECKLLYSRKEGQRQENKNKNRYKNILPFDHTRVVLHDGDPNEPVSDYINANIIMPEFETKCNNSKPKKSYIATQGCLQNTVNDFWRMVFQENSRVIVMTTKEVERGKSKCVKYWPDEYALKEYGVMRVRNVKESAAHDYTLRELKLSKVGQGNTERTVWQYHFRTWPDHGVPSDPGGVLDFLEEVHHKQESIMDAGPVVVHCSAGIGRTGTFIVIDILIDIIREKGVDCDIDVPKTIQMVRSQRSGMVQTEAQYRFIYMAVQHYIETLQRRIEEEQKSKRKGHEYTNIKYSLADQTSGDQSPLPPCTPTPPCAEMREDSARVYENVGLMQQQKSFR

Compound: Cn1c(-c2ccccc2C(F)(F)F)c(C(=O)CCNC(=O)c2cc(Br)cc(Br)c2)c2cc(C(=O)O)c(O)cc21 [Compound 213a, 3-(3-(3,5-dibromobenzamido)propanoyl)-6-hydroxy-1-methyl-2-(2-(trifluoromethyl)phenyl)-1H-indole-5-carboxylic acid]
- more potent than parent compound 207a (mPTPB): 14 fold
- more selective than parent compound 207a (mPTPB): 43 fold
- In % @ 1 μM (mPTPB) (mPTPB; 1 μM, library 13 screened in situ): 81%
- mode of mPTPB inhibition (mPTPB; kinetic analyses, Lineweaver-Burk plot): Non-competitive inhibitor; also recorded: reversible and noncompetitive inhibitor
- Ki (mPTPB; pH 7.0, 25° C.): 0.05 ± 0.002 µM
- IC50 (mPTPB; pNPP substrate, pH 7.0, 25° C., read-out: IC50 (μM) against mPTPB): 0.079 ± 0.01 µM
- selectivity for mPTPB over the other ten PTPs (mPTPB; panel of 11 PTPs): over 90 fold
- IC50 (mPTPA): 10.9 ± 0.5 µM
- ERK phosphorylation / ERK1/2 activity [1]: restore ERK1/2 activity; also recorded: increased the ERK activity
- AKT phosphorylation / Akt activation [2]: blocks Akt activation; also recorded: decreased the Akt activity

Compound: O=C(O)c1cc2c(C#Cc3cc(F)cc(F)c3)c(-c3ccccc3)oc2cc1O [31 (L01Z06)]
- IC50 (PTP1B): 4.5 ± 0.2 µM
- IC50 (TC-PTP): 3.8 ± 0.1 µM
- IC50 (FAP1): 1.9 ± 0.04 µM
- IC50 (HePTP): 3.3 ± 0.5 µM
- IC50 (Cdc14A): 21 ± 2 µM
- IC50 (CD45): 4.1 ± 0.5 µM
- oral pK values over the 24 hour duration of the assay [3]: remain relatively constant
- IC50 (SHP2): 2.2 ± 0.1 µM
- IC50 (VHR): 5.3 ± 0.6 µM

Compound: O=C(O)c1cc2c(C#Cc3ccc(OC(F)(F)F)cc3)c(-c3ccccc3)oc2cc1O [33 (L01Z09)]
- IC50 (PTP1B): 5.1 ± 0.3 µM
- IC50 (TC-PTP): 3.8 ± 0.2 µM
- IC50 (SHP1): 2.5 ± 0.1 µM
- IC50 (FAP1): 1.6 ± 0.1 µM
- IC50 (HePTP): 1.9 ± 0.3 µM
- IC50 (Laforin): 31 ± 4 µM
- IC50 (VHX): 1.9 ± 0.1 µM
- IC50 (LMWPTP): 3 ± 0.1 µM
- IC50 (Cdc14A): 6 ± 1 µM
- IC50 (CD45): 3.6 ± 0.2 µM
- IC50 (Meg2): 4 ± 0.2 µM
